According to patent US20200009211A1, “CURCUMIN-CONTAINING MEDICINAL PREPARATION” (SAN-EI GEN F.F.I., INC., priority 2017, published 2020):

Assay: Curcumin administration test (A) in HFD-challenged mice: plasma TCHO, CM, LDL (Test Example 11)
Assay type: in vivo, mice (C57BL/6)
Conditions: HFD-challenged C57BL/6 mice, ad libitum drinking of aqueous liquid for 12 weeks
Experimental: In this test, total cholesterol (TCHO), chylomicron (CM), and LDL cholesterol (LDL) were measured. […] After the feeding period, blood was sampled and centrifuged at […] at 4° C. for 15 minutes to obtain plasma. The plasma was measured by a Fuji Dri-Chem 4000V biochemical automatic analyzer (Fujifilm, Tokyo, Japan).

For `CC(C)(Oc1ccc(CCNC(=O)c2ccc(Cl)cc2)cc1)C(=O)O` [Bezafibrate], the “CM (chylomicron) in plasma” value was 0.53 mg/dL, the “LDL (LDL cholesterol) in plasma” value was 17.9 mg/dL and the “TCHO (total cholesterol) in plasma” value was 125.0 mg/dL.
